Entries after “also recorded” stand apart in the source; their conditions may differ.
Tests used:
[1] = system: PDE4D; assay: PDE4D function in VSMC; assay type: cell-based; conditions: summary statement
[2] = system: primary VSMC; assay: Mouse SMC proliferation by BrdU incorporation; assay type: cell-based; conditions: for cell proliferation (BrdU incorporation): 25 μM peptide 24 h, PDGF 25 ng/ml with or without forskolin 25 μM, vs control peptide
Method: A. Representatives cross sections of injured femoral arteries stained with Masson Trichrome from the indicated hematopoietic chimeras. Scale bars=100 μM. Irradiated WT, PI3Kγ KD (KD) and PI3Kγ KO recipient mice were transplanted with bone marrow from the indicated donors to obtain the indicated chimeras. Irradiated WT mice were transplanted with bone marrow from WT, PI3Kγ KD or PI3Kγ KO to obtain the following hematopoietic chimeras: WT>WT, KD>WT and KO>WT. Irradiated KD recipient mice were transplanted with bone marrow from WT or PI3Kγ KD donor mice (WT>KD; KD>KD). Irradiated KO recipient mice were transplanted with bone marrow from WT or KO donors (WT>KO and KO>KO). B. Quantitative analysis of intima/media ratios of indicated hematopoietic chimeras. Histogram represents the neointima/media ratio for each chimera (n>6 mice for each group). Data are presented as mean±SEM and were compared using a one-way ANOVA test. C. Schematic representation of the experimental model used to investigate PI3Kγ implication in the control of SMC proliferation. D. Western blot of PI3Kγ expression in each genotype. […] (5<n<12 cultures for each genotype). Data are presented as mean±SEM and were compared using a one-way ANOVA test.
A, B, C. […] BrdU was added during the last 18 h (n=8 cultures for each genotype). Data are presented as mean±SEM and were compared using a one-way ANOVA test. D. Schematic model of PI3Kγ implication in VSMC proliferation. VSMC proliferation is induced by PDGF stimulation. […] This PI3Kγ recruitment could also concentrate phosphodiesterases (PDE) that counterbalance cAMP production by adenylate cyclase (AC) induced by other signals. By these mechanisms, PI3Kγ acts as an amplifier of VSMC synthetic transition.
Measure of mouse SMC proliferation: Primary mouse SMCs were sub-cultured onto 48-well cell culture plates in complete medium. Cells were treated or not with PDGF (520-BB-050, R&D Systems) and forskolin (F3917, Sigma Aldrich) for 24 h. For blocking peptide experiments, cells were incubated 24 h with 25 μM of control ([…]—SEQ ID No.: 13) or blocking peptide ([…]—SEQ ID No.: 14). Peptides were synthesized by GenScript (GenScript, Piscataway, N.J.). BrdU (00-0103, Invitrogen) incorporation assays were performed by classical immunofluorescence procedure using anti-BrdU antibody (11-5071, eBioscience) and DAPI. Proliferation rate is measured as the ratio of BrdU positive nuclei over total nuclei and expressed as fold increase.

[3] = system: intracellular cAMP in primary VSMC; assay: cAMP dynamics with FRET-based TEpacVV biosensor; assay type: cell-based, mouse; conditions: for cAMP level regulated by PDE4 (rolipram response): rolipram 1 μM; for cAMP production in response to forskolin: Rmax = forskolin 2.5 μM + IBMX 200 μM; for cAMP level regulated by PDE3 (cilostamide response): cilostamide 1 μM
Method: A. Left panel: Average changes in intracellular cAMP concentration ([cAMP]i) in primary VSMC from WT (top), PI3Kγ KO (middle) and PI3Kγ-KD (bottom) mice and expressing the ^TEpac^VV biosensor. The black line represents the average F480/F535 emission ratio over time in response to 2.5 μM forskolin (fsk) stimulation and fsk (2.5 μM)+IBMX (200 μM) treatment. B. Histograms representing the mean values for forskolin responses. Results are expressed as a percentage of the maximal ratio change (% of Rmax(IBMX response)) determined by the final application of forskolin (2.5 μM)+IBMX (200 μM). Data shown are the means±SEM. (n=5 mice). Data are presented as mean±SEM and were compared using a Kruskal-Wallis test. C. Homogenous time-resolved fluorescence (HTRF) dosage of intracellular cAMP from WT, PI3Kγ KO or PI3Kγ KD primary VSMC after 30 min treatment with vehicle or 0.5 μM Forskolin.
A. Average changes in [cAMP]i in primary VSMC from WT (top), PI3Kγ KO (middle) and PI3Kγ-KD (bottom) mice and expressing the ^TEpac^VV biosensor. The trace indicates the average F480/F535 emission ratio over time in response to 2.5 μM forskolin, cilostamide (1 μM), rolipram (1 μM) and forskolin (2.5 μM)+IBMX (200 μM) treatment. B. Histograms representing the mean values for rolipram and cilostamide responses. Results are expressed as a percentage of the maximal ratio change (% of Rmax (IBMX response)) determined by the final application of forskolin (2.5 μM)+IBMX (200 μM). Data are presented as mean±SEM (n>22 with 4 different mice) and were compared using a Kruskal-Wallis test. C. Phosphodiesterase activity detected in PDE4D immunoprecipitates from primary VSMC. Data shown are the means±SEM and compared using one-way ANOVA followed by Bonferroni post-hoc test (n=3). D. Representative Western blot of PDE4D immunoprecipitates.
Measurement of cAMP dynamics: Primary SMC were seeded on coverslips and infected with the ^TEpac^VV-encoding type-5 adenovirus (˜100 particles per SMC) as described elsewhere. Coverslips were placed in a microscope chamber continually perfused (2 mL·min^−1) with BBS buffer (125 mM NaCl, 2 mM CaCl2), 1 mM MgCl2, 1.25 mM NaH2PO4, 26 mM NaHCO3, 25 mM glucose) saturated with 95% 02-5% CO2. Ratiometric analyses were performed as follows: fluorescence was excited with a LED source at 435 nm and fluorescence emission was monitored with a dichroic mirror (T450LPXR) and alternating emission filters for the donor (HQ480/40) and acceptor (D535/40). Pairs of images were recorded with an Orca-ER CCD camera (Hamamatsu Photonics, Japan), at 20-s intervals. Changes in [cAMP]i are expressed as the ratio of donor fluorescence (F480) to acceptor fluorescence (F535). The ratios were multiplied by a same constant for all experiments, such that the baseline ratio was 1 in basal conditions. The maximum ratio change (Rmax) was obtained by stimulating cells with 2.5 μM forskolin and […] IBMX (15879, Sigma Aldrich). Filters and mirrors were obtained from AHF analysentechnik AG, Tübingen, Germany.

[4] = system: C5a-mediated Akt phosphorylation (Ser-473), relying on the catalytic activity of PI3Kγ, RAW264 macrophages; assay: C5a-mediated Akt phosphorylation in macrophages (Western blot); assay type: cell-based; conditions: then C5a 5 min
Method: A. Schematic representation of the cell-permeable PI3Kγ competing peptide. The 126-150 region of PI3Kγ was fused to the cell-penetrating peptide Penetratin 1 (P1). A control peptide was generated by insertion of two point mutations (K>A and R>A at position 1 and 5 of the PI3Kγ sequence, respectively). B. RAW macrophages were pre-treated with vehicle, the PI3Kγ peptide (10 μM) or the PI3Kγ kinase inhibitor AS605240 (1 μM) for 1 hour and then with C5a (50 μM) for 5 minutes. Representative Western blot images of phospho-AKT (Ser-473) and total AKT (left) and ratio quantification (right) are shown. GAPDH was used as loading control. n=3. C. Incorporation by primary VSMC of a FITC-labelled PI3Kγ peptide at 1 h, 5 h, 24 h and 30 h after incubation. D. Quantification of FITC-associated fluorescence intensity inside VSMC area. C5a-mediated Akt phosphorylation in macrophages: After 3 h starvation in serum-free medium, RAW264 macrophages were pre-treated with the PI3Kγ competing peptide (25 μM) or the PI3Kγ inhibitor AS-605240 (1 μM; MedChemExpress) or DMSO for 30 min and stimulated for 5 min with 50 nM of C5a (Sigma Aldrich). Akt phosphorylation at Ser-473 was detected by Western blot using a Ser473 Akt-specific antibody (Cell Signaling Technology).

[5] = system: PKA; conditions: reference [19]; cited from earlier work
[6] = forskolin-stimulated PI3Kγ-KD VSMC
[7] = forskolin-stimulated PI3Kγ-KO VSMC

For “RQIKIWFQNRRMKWKKGKATHRSPGQIHLVQRHPPSEESQAF (KIT2014) [PI3Kγ peptide, The 126-150 region of PI3Kγ fused to the cell-penetrating peptide Penetratin 1 (P1)]”, the PDE4D function [1] was “specifically blunted PDE4D function”, the “cell proliferation (BrdU incorporation)” value ([2]; PI3Kγ-KD primary VSMC) was “inhibited cell proliferation” and the “cell proliferation (BrdU incorporation)” value ([2]; PI3Kγ-KO primary VSMC) was “no difference was observed”. For the same compound, the VSMC proliferation ([2]; VSMC in vitro, response to PDGF and forskolin, genotype not stated (summary statement)) was “abolished VSMC proliferation; also recorded: inhibits VSMC proliferation”, the “cell proliferation (BrdU incorporation)” value ([2]; WT primary VSMC) was “inhibited cell proliferation” and the “cAMP levels in VSMC” value ([3]; peptide conjugated with Penetratin 1, summary statement) was “increases their cAMP levels”. For the same compound, the “C5a-mediated Akt phosphorylation in macrophages” value ([4]; RAW macrophages pre-treated with PI3Kγ peptide (25 μM b74; 10 μM b24)) was “unaltered”.
In the case of COc1ccc(C2CNC(=O)C2)cc1OC1CCCC1 (stereo not drawn) [rolipram], the “cAMP level regulated by PDE4 (rolipram response)” value (“cAMP level regulated by PDE4” for short) [3, 6] is reported as 73 % of IBMX response, the “cAMP level regulated by PDE4” value [3, 7] is reported as 43 % of IBMX response and the “cAMP level regulated by PDE4” value ([3]; forskolin-stimulated WT VSMC) is reported as 67 % of IBMX response.
In the case of “RQIKIWFQNRRMKWKKGAATHASPGQIHLVQRHPPSEESQAF (control peptide)”, the “interaction with PKA” value [5] is given as “does not interact with PKA”.
For C=C[C@@]1(C)CC(=O)[C@]2(O)[C@@]3(C)[C@@H](O)CCC(C)(C)[C@@H]3[C@H](O)[C@H](OC(C)=O)[C@@]2(C)O1 [forskolin], the “cAMP production in response to forskolin” value ([3]; 2.5 μM forskolin, PI3Kγ-KO primary VSMC) was 52.57 % of IBMX response, the “cAMP production in response to forskolin” value ([3]; 2.5 μM forskolin, WT primary VSMC) was 24.09 % of IBMX response and the “increase of forskolin cAMP response, PI3Kγ-KO compared to WT” value ([3]; 2.5 μM forskolin, p=0.03) was 2.2 folds.
With O=C1NC(=O)/C(=C\c2ccc3nccnc3c2)S1 [AS-6052540] the “C5a-mediated Akt phosphorylation in macrophages” value ([4]; RAW macrophages pre-treated with inhibitor 1 μM) was “significantly reduced”.
For CN(C(=O)CCCOc1ccc2[nH]c(=O)ccc2c1)C1CCCCC1 [cilostamide], the “cAMP level regulated by PDE3 (cilostamide response)” value (“cAMP level regulated by PDE3” for short) [3, 6] was 17 % of IBMX response, the “cAMP level regulated by PDE3” value [3, 7] was 49 % of IBMX response and the “cAMP level regulated by PDE3” value ([3]; forskolin-stimulated WT VSMC) was 25 % of IBMX response.

From patent US20230234996A1, “PI3K GAMMA INHIBITOR PEPTIDE FOR TREATMENT OF FIBROPROLIFERATIVE VASCULAR DISEASES” (Kither Biotech S.r.l., priority 2020, published 2023)
